Values quoted from earlier work as cited in US20070166321A1, “Compositions and Methods for Reducing Cholesterol and Inflammation” (priority 2006, published 2007).
Entries after “also recorded” stand apart in the source; their conditions may differ.

Key:
[1] = tested on: 12-O-tetradecanoylphorbol-13 acetate (TPA) induced inflammation; details: for 50%-inflammation reduction index ID50: TPA-induced inflammation
[2] = in vivo
[3] = not given; remark: listed apart in the source

SMILES | 50%-inflammation reduction index ID50 [1] | increase of cardiovascular disease [2] | solubility in water | inhibition of TPA induced inflammation, potency comparison ([1]; compared with reference antiinflammatory drugs) | effect on glucose levels of non-diabetics [3]
COc1ccc2c(c1)c(CC(=O)O)c(C)n2C(=O)c1ccc(Cl)cc1 [indomethacin] | 0.3 mg |  |  |  | 
CS(=O)(=O)c1ccc(C2=C(c3ccccc3)C(=O)OC2)cc1 [Vioxx] |  | ~4 fold |  |  | 
C[C@]12CCC(=O)C=C1CC[C@@H]1[C@@H]2[C@@H](O)C[C@@]2(C)[C@H]1CC[C@]2(O)C(=O)CO [hydrocortisone] | 0.03 mg |  |  |  | 
C[C@H]1[C@H](C)CC[C@]2(C(=O)O)CC[C@]3(C)C(=CC[C@@H]4[C@@]5(C)C[C@@H](O)[C@H](O)C(C)(C)[C@@H]5CC[C@]43C)[C@H]12 [corosolic acid] | 0.03 mg |  | low solubility in water | potency similar to the antiinflammatory drug indomethasin; also recorded: potency similar to the antiinflammatory drugs indomethasin and hydrocortisone | does not significantly reduce glucose levels
